# Biological target: T1, human Glucose-dependent Insulinotropic Polypeptide Receptor (hGIPR) (Homo sapiens, UniProt P48546)
# T1 sequence (P48546 22-466): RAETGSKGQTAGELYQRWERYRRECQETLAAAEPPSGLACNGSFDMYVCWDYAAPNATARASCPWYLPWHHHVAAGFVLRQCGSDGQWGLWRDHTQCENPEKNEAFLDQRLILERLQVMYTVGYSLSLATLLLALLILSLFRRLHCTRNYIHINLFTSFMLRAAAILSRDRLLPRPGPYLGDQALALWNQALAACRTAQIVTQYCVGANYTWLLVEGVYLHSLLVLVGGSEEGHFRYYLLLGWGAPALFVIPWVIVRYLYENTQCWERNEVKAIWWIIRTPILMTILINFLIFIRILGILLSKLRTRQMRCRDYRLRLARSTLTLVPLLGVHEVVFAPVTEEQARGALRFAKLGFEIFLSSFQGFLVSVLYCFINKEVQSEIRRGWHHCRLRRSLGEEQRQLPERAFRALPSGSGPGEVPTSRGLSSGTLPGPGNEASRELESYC
# Assay: Functional in vitro GIPR antagonist potency assay (intracellular cAMP, HTRF, hGIP stimulation at EC80)
# Assay type: cell-based
# Conditions: not given
# Experimental: Example AA. Functional In Vitro GIPR Antagonist Potency Assay
# The functional in vitro antagonist potency for test compounds was determined by monitoring intracellular cyclic adenosine monophosphate (cAMP) levels in Chinese hamster ovary (CHO)—K1 cells stably expressing the human Glucose-dependent Insulinotropic Polypeptide Receptor (hGIPR). Following agonist activation, hGIPR associates with the G-protein complex causing the Gas subunit to exchange bound guanosine diphosphate (GDP) for guanosine triphosphate (GTP), followed by dissociation of the Gas-GTP complex. The activated Gas subunit can couple to downstream effectors to regulate the levels of second messengers or cAMP within the cell. Thereby, determination of intracellular cAMP levels allows for pharmacological characterization. Intracellular cAMP levels are quantitated using a homogenous assay utilizing the Homogeneous Time Resolved Fluorescence (HTRF) technology from Perkin Elmer. The method is a competitive immunoassay between native cAMP produced by the cells and cAMP labelled with the acceptor dye, d2. The two entities compete for binding to a monoclonal anti-cAMP antibody labeled with cryptate. The specific signal is inversely proportional to the concentration of cAMP in the cells.
# Test compounds were solubilized to a concentration of 30 mM in 100% dimethyl sulfoxide (DMSO). An 11-point dilution series using 1 in 3.162-fold serial dilutions was created in 100% DMSO with a top concentration of 8 mM. The serially diluted compound was spotted with an Echo Acoustic liquid handler (Beckman Coulter) into a 384-well assay plate (Corning, Cat No. 3824) at 50 nL/well with duplicate points at each concentration, at a 200× final assay concentration (FAC). The final compound concentration range in the assay was 40 μM to […], with a final DMSO concentration of 0.5%.
# Frozen assay-ready vials (at 1×10^7 cells/vial) of CHO-K1 cells stably expressing the Gs-coupled human GIPR receptor (Eurofins, DiscoverX, Cat No. 95-0146C2) were thawed, counted, and resuspended in assay buffer consisting of Hank's Balanced Salt Solution (HBSS, Lonza Cat No. 10-527) containing 20 mM (4-(2-hydroxyethyl)-1-piperazineethanesulfonic acid (HEPES, Lonza, Cat No. 17-737E), 0.1% bovine serum albumin (BSA, Sigma, Cat No. A7979), and 200 μM 3-isobutyl-1-methylxanthine (IBMX, Sigma, Cat No. 15879) at a density of 4×10^5 cells/mL. Cells were added to assay plate (5 μL/well of 4×10^5 cells/mL stock for 2,000 cells/well final) containing 50 nL of 200×FAC test compound, and incubated at 37° C. (95% O2: 5% CO2) for 2 hours, with micro-clime lids (Labcyte, Cat No. LLS-0310). Following the 2-hour cell and compound incubation, a stimulation mix comprised of hGIPR agonist human glucose-dependent insulinotropic polypeptide (hGIP, full length, Sigma Cat No. G2269) in assay buffer/0.1% DMSO was added to the assay plate (5 μL/well) at an estimated EC80 FAC (based on previous hGIP agonist curves) and incubated for another 30 minutes with micro-clime lids at 37° C. (95% O2: 5% CO2), after which intracellular cAMP levels were quantified as per Perkin Elmer's protocol (5 μL of d2 and then 5 μL cryptate, incubated for 1 hour at room temperature). Emission spectra of samples were measured on a Pherastar plate reader (BMG Labtech Inc) using a HTRF protocol (excitation, 320 nm; emission, 665 nm/620 nm).
# (95% O2: 5% CO2), with a micro-clime lid. Following the 2-hour cell and DMSO incubation, a hGIP concentration response curve at 2×FAC (12-point curve using 1 in 3 serial dilutions, with triplicate points at each concentration, 100 nM final top concentration) in assay buffer/1% DMSO was added (5 μL/well) and incubated for a further 30 minutes with a micro-clime lid at 37° C. (95% O2: 5% CO2), after which intracellular cAMP levels were quantified and samples measured as described previously. Experiments passed quality control if the agonist concentration used for stimulation fell between the on-the-day EC50-EC90. […]
row,Structure (SMILES),IC50
1,"Cc1cc(-n2ccc(NC(=O)[C@H]3CCCN3C(=O)Nc3ccc(C(F)(F)F)c(F)c3)n2)ccc1C(=O)O [Example 9, 4-{3-[(1-{[3-Fluoro-4-(trifluoromethyl)phenyl]carbamoyl}-D-prolyl)amino]-1H-pyrazol-1-yl}-2-methylbenzoic Acid]",19 nM
2,"Cc1cc(-n2ccc(NC(=O)[C@H]3CCCN3C(=O)Nc3ccc(OC(F)(F)F)cc3)n2)ccc1C(=O)O [Example 11, 2-Methyl-4-{3-[(1-{[4-(trifluoromethoxy)phenyl]carbamoyl}-D-prolyl)amino]-1H-pyrazol-1-yl}benzoic Acid]",11 nM

# Same assay, conditions: geometric mean; CHO-K1 cells stably expressing human GIPR, cAMP after hGIP stimulation at EC80
row,Structure (SMILES),IC50
1,"Cc1cc(NC(=O)N2CCC[C@@H]2C(=O)Nc2ccn(-c3ccc(C(=O)O)cc3)n2)ccc1C(F)(F)F [Example 31, 4-{3-[(1-{[3-methyl-4-(trifluoromethyl)phenyl]carbamoyl}-D-prolyl)amino]-1H-pyrazol-1-yl}benzoic acid]",24 nM
2,"CC(C)c1ccc(NC(=O)N2CCC[C@@H]2C(=O)Nc2ccn(-c3ccc(C(=O)O)cc3F)n2)cc1 [Example 24, 3-fluoro-4-{3-[(1-{[4-(propan-2-yl)phenyl]carbamoyl}-D-prolyl)amino]-1H-pyrazol-1-yl}benzoic acid]",15 nM
3,"Cc1cc(NC(=O)N2CCC[C@@H]2C(=O)Nc2ccn(-c3ccc(C(=O)O)cn3)n2)ccc1C(C)C [Example 28, 6-{3-[(1-{[3-methyl-4-(propan-2-yl)phenyl]carbamoyl}-D-prolyl)amino]-1H-pyrazol-1-yl}pyridine-3-carboxylic acid]",29 nM
4,"CC(C)c1ccc(NC(=O)N2CCC[C@@H]2C(=O)Nc2ccn(-c3cccc(C(=O)O)c3)n2)cc1 [Example 20, 3-{3-[(1-{[4-(propan-2-yl)phenyl]carbamoyl}-D-prolyl)amino]-1H-pyrazol-1-yl}benzoic acid]",240 nM
5,"Cc1cc(-n2ccc(NC(=O)[C@H]3CCCN3C(=O)Nc3ccc(C4CC4)c(C)c3)n2)ccc1C(=O)O [Example 39, 4-[3-({1-[(4-cyclopropyl-3-methylphenyl)carbamoyl]-D-prolyl}amino)-1H-pyrazol-1-yl]-2-methylbenzoic acid]",27 nM
6,"CC(C)c1ccc(NC(=O)N2CCC[C@@H]2C(=O)Nc2ccn(-c3ccc(C(=O)O)cn3)n2)cc1 [Example 21, 6-{3-[(1-{[4-(propan-2-yl)phenyl]carbamoyl}-D-prolyl)amino]-1H-pyrazol-1-yl}pyridine-3-carboxylic acid]",50 nM
7,"CC(C)c1ccc(NC(=O)N2CCC[C@@H]2C(=O)Nc2ccn(-c3ccc(CC(=O)O)cc3)n2)cc1 [Example 2, (4-{3-[(1-{[4-(Propan-2-yl)phenyl]carbamoyl}-D-prolyl)amino]-1H-pyrazol-1-yl}phenyl)acetic Acid]",25 nM
8,"Cc1cc(-n2ccc(NC(=O)[C@H]3CCCN3C(=O)CCc3ccc(C(F)(F)F)cc3)n2)ccc1C(=O)O [Example 18, 2-Methyl-4-{3-[(1-{3-[4-(trifluoromethyl)phenyl]propanoyl}-D-prolyl)amino]-1H-pyrazol-1-yl}benzoic Acid]",250 nM
9,"Cc1cc(NC(=O)N2CCC[C@@H]2C(=O)Nc2ccn(-c3ccc(C(=O)O)cc3)n2)ncc1C(C)C [Example 30, 4-{3-[(1-{[4-methyl-5-(propan-2-yl)pyridin-2-yl]carbamoyl}-D-prolyl)amino]-1H-pyrazol-1-yl}benzoic acid]",250 nM
10,"Cc1cc(-n2ccc(NC(=O)[C@H]3CCCN3C(=O)Nc3ccc(C(C)C)c(C)c3)n2)ccc1C(N)=O [Example 15, (2R)—N^2-[1-(4-Carbamoyl-3-methylphenyl)-1H-pyrazol-3-yl]-N^1-[3-methyl-4-(propan-2-yl)phenyl]pyrrolidine-1,2-dicarboxamide]",41 nM
11,"Cc1cc(-n2ccc(NC(=O)[C@H]3CCCN3C(=O)Nc3ccc(C(F)(F)F)c(C)c3)n2)ccc1C(=O)O [Example 38, 2-methyl-4-{3-[(1-{[3-methyl-4-(trifluoromethyl)phenyl]carbamoyl}-D-prolyl)amino]-1H-pyrazol-1-yl}benzoic acid]",28 nM
12,"Cc1cc(-n2ccc(NC(=O)[C@H]3CCCN3C(=O)Nc3ccc(C(C)C)c(C)c3)n2)ccc1C(=O)O [Example 6, 2-Methyl-4-{3-[(1-{[3-methyl-4-(propan-2-yl)phenyl]carbamoyl}-D-prolyl)amino]-1H-pyrazol-1-yl}benzoic Acid]",4.1 nM

# Next, values leading:
row,IC50,Structure (SMILES)
1,8.4 nM,"Cc1cc(-n2ccc(NC(=O)[C@H]3CCCN3C(=O)Nc3ccc(C4CCCC4)cc3)n2)ccc1C(=O)O [Example 45, 4-[3-({1-[(4-cyclopentylphenyl)carbamoyl]-D-prolyl}amino)-1H-pyrazol-1-yl]-2-methylbenzoic acid]"
2,40 nM,"Cc1c(C(=O)O)ccc(-n2ccc(NC(=O)[C@H]3CCCN3C(=O)COc3ccc(OC(F)(F)F)cc3)n2)c1F [Example 65, 3-fluoro-2-methyl-4-{3-[(1-{[4-(trifluoromethoxy)phenoxy]acetyl}-D-prolyl)amino]-1H-pyrazol-1-yl}benzoic acid]"
3,34 nM,CC(C)c1ccc(NC(=O)N2CCC[C@@H]2C(=O)Nc2ccn(-c3ccc(O)cc3F)n2)cc1 [Example 44]
4,13 nM,"Cc1cc(-n2ccc(NC(=O)[C@H]3CCCN3C(=O)Nc3ccc(C4CC4)c(C(F)(F)F)c3)n2)ccc1C(=O)O [Example 53, 4-{3-[(1-{[4-cyclopropyl-3-(trifluoromethyl)phenyl]carbamoyl}-D-prolyl)amino]-1H-pyrazol-1-yl}-2-methylbenzoic acid]"
5,310 nM,"Cc1cc(-n2ccc(NC(=O)[C@H]3CCCN3C(=O)Nc3ccc(OC(F)F)cc3)n2)ccc1C(=O)O [Example 56, 4-{3-[(1-{[4-(difluoromethoxy)phenyl]carbamoyl}-D-prolyl)amino]-1H-pyrazol-1-yl}-2-methylbenzoic acid]"
6,75 nM,"Cc1cc(-n2ccc(NC(=O)[C@H]3CCCN3C(=O)Nc3ccc(Cl)c(C(F)(F)F)c3)n2)ccc1C(=O)O [Example 46, 4-{3-[(1-{[4-chloro-3-(trifluoromethyl)phenyl]carbamoyl}-D-prolyl)amino]-1H-pyrazol-1-yl}-2-methylbenzoic acid]"
7,8.8 nM,"C=C(C)c1ccc(NC(=O)N2CCC[C@@H]2C(=O)Nc2ccn(-c3ccc(C(=O)O)c(C)c3)n2)cc1C [Example 58, 2-methyl-4-{3-[(1-{[3-methyl-4-(prop-1-en-2-yl)phenyl]carbamoyl}-D-prolyl)amino]-1H-pyrazol-1-yl}benzoic acid]"
8,210 nM,"Cc1cc(-n2ccc(NC(=O)[C@H]3CCCN3C(=O)COc3ccc(C(F)(F)F)cc3)n2)ccc1C(N)=O [Example 60, N-[1-(4-carbamoyl-3-methylphenyl)-1H-pyrazol-3-yl]-1-{[4-(trifluoromethyl)phenoxy]acetyl}-D-prolinamide]"
